Common to all, as to assay type: functional
Assay [1] relates to Enterococcus faecalis. Kind of assay: Antimicrobial activity against vancomycin-sensitive Enterococcus faecalis isolate 11.
Assay [2] relates to Enterococcus faecalis. Kind of assay: Antimicrobial activity against vancomycin-resistant Enterococcus faecalis isolate 12.
In assay [3] the test system is Staphylococcus aureus. Kind of assay: Antimicrobial activity against methicillin-sensitive Staphylococcus aureus isolate 1.
The subject of assay [4] is Staphylococcus aureus. The assay can be described thus: Antimicrobial activity against vancomycin-insensitive Staphylococcus aureus isolate 9.
Assay [5] has as its system Staphylococcus aureus. The assay can be described thus: Antimicrobial activity against vancomycin-insensitive Staphylococcus aureus isolate 10.
For assay [6], the system named is Enterococcus faecium. The assay can be described thus: Antimicrobial activity against vancomycin-resistant Enterococcus faecium isolate 15.
Assay [7] concerns Enterococcus faecalis. Kind of assay: Antimicrobial activity against vancomycin-resistant Enterococcus faecalis isolate 13.
Assay [8] deals with Staphylococcus aureus. Kind of assay: Antimicrobial activity against methicillin-sensitive Staphylococcus aureus isolate 4.
The subject of assay [9] is Staphylococcus aureus. The assay can be described thus: Antimicrobial activity against methicillin-resistant Staphylococcus aureus isolate 6.
Assay [10] relates to Enterococcus faecium. Kind of assay: Antimicrobial activity against vancomycin-resistant Enterococcus faecium isolate 14.
In assay [11] the test system is Staphylococcus aureus. Kind of assay: Antimicrobial activity against methicillin-resistant Staphylococcus aureus isolate 5.
The test system of assay [12] is Staphylococcus aureus. Kind of assay: Antimicrobial activity against methicillin-resistant Staphylococcus aureus isolate 8.
The test system of assay [13] is Staphylococcus aureus. The assay can be described thus: Antimicrobial activity against methicillin-resistant Staphylococcus aureus isolate 7.
The test system of assay [14] is Staphylococcus aureus. Kind of assay: Antimicrobial activity against methicillin-sensitive Staphylococcus aureus isolate 3.
The subject of assay [15] is Staphylococcus aureus. The assay can be described thus: Antimicrobial activity against methicillin-sensitive Staphylococcus aureus isolate 2.

The values below come from ChEMBL document CHEMBL1156331, “7-Phenylplatensimycin and 11-methyl-7-phenylplatensimycin: more potent analogs of platensimycin” (2010).

In brackets after ≈: the same amount, converted by molar mass.

Consider `CC12CC34CC1CC(O2)C3C(C)(CCC(=O)Nc1c(O)ccc(C(=O)O)c1O)C(=O)C=C4c1ccccc1` (stereo not drawn), for which the MIC against Enterococcus faecalis [1] was ≤ 0.5 µg/mL; in the assay with Enterococcus faecalis [2] it was 8 µg/mL (≈ 15.5 µM); with Staphylococcus aureus [3] it was 0.25 µg/mL (≈ 0.483 µM); in the assay on Staphylococcus aureus [4] it was 1 µg/mL (≈ 1.93 µM); in the assay with Staphylococcus aureus [5], 1 µg/mL (≈ 1.93 µM); with Enterococcus faecium [6] it was ≤ 0.5 µg/mL. Besides, the MIC was 16 µg/mL (≈ 30.9 µM) in the assay on Enterococcus faecalis [7]; < 0.25 µg/mL in the assay with Staphylococcus aureus [8]; < 0.25 µg/mL against Staphylococcus aureus [9]; 2 µg/mL (≈ 3.86 µM) in the assay on Enterococcus faecium [10]; < 0.25 µg/mL against Staphylococcus aureus [11]; 0.5 µg/mL (≈ 0.966 µM) in the assay with Staphylococcus aureus [12]. The MIC was < 0.25 µg/mL against Staphylococcus aureus [13], 2 µg/mL (≈ 3.86 µM) in the assay on Staphylococcus aureus [14] and 0.5 µg/mL (≈ 0.966 µM) against Staphylococcus aureus [15].

For the compound `C[C@@H]1C2OC3(C)CC4(CC13)C(c1ccccc1)=CC(=O)C(C)(CCC(=O)Nc1c(O)ccc(C(=O)O)c1O)C24` (stereo partly drawn), the MIC against Enterococcus faecalis [1] was 8 µg/mL (≈ 15 µM); against Enterococcus faecalis [2], 16 µg/mL (≈ 30.1 µM); with Staphylococcus aureus [3], < 0.25 µg/mL; with Staphylococcus aureus [4], 1 µg/mL (≈ 1.88 µM); against Staphylococcus aureus [5], 4 µg/mL (≈ 7.52 µM); against Enterococcus faecium [6], ≤ 0.5 µg/mL. Further, the minimal inhibitory concentration (MIC) in the assay on Enterococcus faecalis [7] was 8 µg/mL (≈ 15 µM); with Staphylococcus aureus [8], < 0.25 µg/mL; in the assay with Staphylococcus aureus [9], < 0.25 µg/mL; against Enterococcus faecium [10], 2 µg/mL (≈ 3.76 µM); with Staphylococcus aureus [11] it was < 0.25 µg/mL; against Staphylococcus aureus [12] it was < 0.25 µg/mL. The MIC with Staphylococcus aureus [13] is < 0.25 µg/mL; against Staphylococcus aureus [14], 0.5 µg/mL (≈ 0.941 µM); against Staphylococcus aureus [15] it was 0.5 µg/mL (≈ 0.941 µM).

In the case of `C[C@@H]1C2OC3(C)CC4(C=CC(=O)C(C)(CCC(=O)Nc5c(O)ccc(C(=O)O)c5O)C24)CC13` (stereo partly drawn), the MIC was determined as 1 µg/mL (≈ 2.2 µM) against Enterococcus faecalis [1]; 32 µg/mL (≈ 70.3 µM) against Enterococcus faecalis [2]; 0.25 µg/mL (≈ 0.549 µM) in the assay on Staphylococcus aureus [3]; 2 µg/mL (≈ 4.39 µM) against Staphylococcus aureus [4]; 8 µg/mL (≈ 17.6 µM) against Staphylococcus aureus [5]; 1 µg/mL (≈ 2.2 µM) against Enterococcus faecium [6]. The MIC was 64 µg/mL (≈ 141 µM) in the assay on Enterococcus faecalis [7]; < 0.25 µg/mL against Staphylococcus aureus [8]; 0.5 µg/mL (≈ 1.1 µM) with Staphylococcus aureus [9]; 2 µg/mL (≈ 4.39 µM) against Enterococcus faecium [10]; 0.25 µg/mL (≈ 0.549 µM) in the assay on Staphylococcus aureus [11]; 1 µg/mL (≈ 2.2 µM) against Staphylococcus aureus [12]. The MIC is 0.5 µg/mL (≈ 1.1 µM) in the assay on Staphylococcus aureus [13], 8 µg/mL (≈ 17.6 µM) in the assay with Staphylococcus aureus [14] and 1 µg/mL (≈ 2.2 µM) against Staphylococcus aureus [15].

With `CC12CC34C=CC(=O)C(C)(CCC(=O)Nc5c(O)ccc(C(=O)O)c5O)C3C(O1)[C@@H](Br)C2C4` (stereo partly drawn), the MIC was found to be 4 µg/mL (≈ 7.69 µM) against Enterococcus faecalis [1]; 128 µg/mL (≈ 246 µM) against Enterococcus faecalis [2]; 1 µg/mL (≈ 1.92 µM) in the assay with Staphylococcus aureus [3]; 8 µg/mL (≈ 15.4 µM) with Staphylococcus aureus [4]; 16 µg/mL (≈ 30.7 µM) against Staphylococcus aureus [5]; 16 µg/mL (≈ 30.7 µM) in the assay on Enterococcus faecium [6]. The MIC against Enterococcus faecalis [7] is > 128 µg/mL; against Staphylococcus aureus [8], 1 µg/mL (≈ 1.92 µM); in the assay with Staphylococcus aureus [9] it was 2 µg/mL (≈ 3.84 µM); with Enterococcus faecium [10], 4 µg/mL (≈ 7.69 µM); against Staphylococcus aureus [11], 1 µg/mL (≈ 1.92 µM); in the assay with Staphylococcus aureus [12], 4 µg/mL (≈ 7.69 µM). In addition, the MIC with Staphylococcus aureus [13] came out at 1 µg/mL (≈ 1.92 µM); against Staphylococcus aureus [14] it was 32 µg/mL (≈ 61.5 µM); with Staphylococcus aureus [15] it was 8 µg/mL (≈ 15.4 µM).

Take `CC1=CC(=O)C(C)(CCC(=O)Nc2c(O)ccc(C(=O)O)c2O)C2C3CC4CC12CC4(C)O3` (stereo not drawn): the MIC against Enterococcus faecalis [1] is ≤ 0.5 µg/mL; against Enterococcus faecalis [2] it was 8 µg/mL (≈ 17.6 µM); against Staphylococcus aureus [3], 0.5 µg/mL (≈ 1.1 µM); with Staphylococcus aureus [4], 4 µg/mL (≈ 8.78 µM); against Staphylococcus aureus [5], 4 µg/mL (≈ 8.78 µM); in the assay with Enterococcus faecium [6], ≤ 0.5 µg/mL. In addition, the MIC in the assay with Enterococcus faecalis [7] is 16 µg/mL (≈ 35.1 µM); against Staphylococcus aureus [8], 0.5 µg/mL (≈ 1.1 µM); with Staphylococcus aureus [9] it was 0.5 µg/mL (≈ 1.1 µM); against Enterococcus faecium [10], 2 µg/mL (≈ 4.39 µM); in the assay with Staphylococcus aureus [11] it was 1 µg/mL (≈ 2.2 µM); with Staphylococcus aureus [12] it was 2 µg/mL (≈ 4.39 µM). Further, the MIC with Staphylococcus aureus [13] was 0.25 µg/mL (≈ 0.549 µM); in the assay with Staphylococcus aureus [14], 2 µg/mL (≈ 4.39 µM); in the assay with Staphylococcus aureus [15] it was 4 µg/mL (≈ 8.78 µM).

`CC1(CCC(=O)Nc2c(O)ccc(C(=O)O)c2O)C(=O)C=CC23CC4CC(OC4(c4ccccc4)C2)C31` (stereo not drawn): the MIC in the assay on Enterococcus faecalis [1] is ≤ 0.5 µg/mL; in the assay with Enterococcus faecalis [2] it was 16 µg/mL (≈ 31.8 µM); against Staphylococcus aureus [3], 2 µg/mL (≈ 3.97 µM); against Staphylococcus aureus [4] it was 16 µg/mL (≈ 31.8 µM); in the assay with Staphylococcus aureus [5] it was 16 µg/mL (≈ 31.8 µM); with Enterococcus faecium [6], ≤ 0.5 µg/mL. For the same compound, the MIC in the assay on Enterococcus faecalis [7] was 16 µg/mL (≈ 31.8 µM); with Staphylococcus aureus [8], 1 µg/mL (≈ 1.99 µM); in the assay with Staphylococcus aureus [9] it was 2 µg/mL (≈ 3.97 µM); against Enterococcus faecium [10], 8 µg/mL (≈ 15.9 µM); against Staphylococcus aureus [11], 1 µg/mL (≈ 1.99 µM); in the assay with Staphylococcus aureus [12] it was 4 µg/mL (≈ 7.94 µM). Besides, the minimum inhibitory concentration (MIC) in the assay on Staphylococcus aureus [13] came out at 2 µg/mL (≈ 3.97 µM); in the assay with Staphylococcus aureus [14] it was 8 µg/mL (≈ 15.9 µM); in the assay on Staphylococcus aureus [15], 8 µg/mL (≈ 15.9 µM).

On to `CC12CC34C=CC(=O)C(C)(CCC(=O)Nc5c(O)ccc(C(=O)O)c5O)C3C(O1)[C@@H](Cl)C2C4` (stereo partly drawn), for which the MIC in the assay on Enterococcus faecalis [1] came out at 2 µg/mL (≈ 4.2 µM); against Enterococcus faecalis [2], 64 µg/mL (≈ 134 µM); in the assay on Staphylococcus aureus [3], 1 µg/mL (≈ 2.1 µM); with Staphylococcus aureus [4], 8 µg/mL (≈ 16.8 µM); with Staphylococcus aureus [5] it was 8 µg/mL (≈ 16.8 µM); against Enterococcus faecium [6], 2 µg/mL (≈ 4.2 µM). The MIC turned out to be 64 µg/mL (≈ 134 µM) with Enterococcus faecalis [7]; 0.5 µg/mL (≈ 1.05 µM) with Staphylococcus aureus [8]; 0.5 µg/mL (≈ 1.05 µM) against Staphylococcus aureus [9]; 8 µg/mL (≈ 16.8 µM) against Enterococcus faecium [10]; 0.25 µg/mL (≈ 0.525 µM) in the assay on Staphylococcus aureus [11]; 4 µg/mL (≈ 8.4 µM) in the assay with Staphylococcus aureus [12]. Further, the MIC in the assay with Staphylococcus aureus [13] came out at 0.25 µg/mL (≈ 0.525 µM); in the assay with Staphylococcus aureus [14], 8 µg/mL (≈ 16.8 µM); against Staphylococcus aureus [15], 8 µg/mL (≈ 16.8 µM).

For `Cc1onc(-c2ccccc2)c1C(=O)N[C@@H]1C(=O)N2[C@@H]1SC(C)(C)[C@@H]2C(=O)O` [OXACILLIN], the MIC is < 0.25 µg/mL against Staphylococcus aureus [3]; > 32 µg/mL in the assay with Staphylococcus aureus [4]; > 32 µg/mL in the assay on Staphylococcus aureus [5]; < 0.25 µg/mL against Staphylococcus aureus [8]; > 32 µg/mL with Staphylococcus aureus [9]; > 32 µg/mL with Staphylococcus aureus [11]. In addition, the MIC against Staphylococcus aureus [12] is > 32 µg/mL; in the assay on Staphylococcus aureus [13], > 32 µg/mL; against Staphylococcus aureus [14], < 0.25 µg/mL; with Staphylococcus aureus [15], < 0.25 µg/mL.

`CC12C[C@@]34C=CC(=O)[C@@](C)(CCC(=O)Nc5c(O)ccc(C(=O)O)c5O)C3[C@H](CC1C4)O2` (stereo partly drawn) [PLATENSIMYCIN]: the MIC in the assay on Enterococcus faecalis [1] was ≤ 0.5 µg/mL; against Enterococcus faecalis [2] it was 8 µg/mL (≈ 18.1 µM); with Staphylococcus aureus [3] it was 1 µg/mL (≈ 2.27 µM); in the assay on Staphylococcus aureus [4] it was 2 µg/mL (≈ 4.53 µM); with Staphylococcus aureus [5], 2 µg/mL (≈ 4.53 µM); against Enterococcus faecium [6], ≤ 0.5 µg/mL. The MIC is 8 µg/mL (≈ 18.1 µM) in the assay on Enterococcus faecalis [7]; < 0.25 µg/mL in the assay on Staphylococcus aureus [8]; 0.25 µg/mL (≈ 0.566 µM) against Staphylococcus aureus [9]; ≤ 0.5 µg/mL in the assay with Enterococcus faecium [10]; 0.25 µg/mL (≈ 0.566 µM) in the assay on Staphylococcus aureus [11]; 1 µg/mL (≈ 2.27 µM) against Staphylococcus aureus [12]. For the same compound, the MIC is 0.25 µg/mL (≈ 0.566 µM) with Staphylococcus aureus [13], 8 µg/mL (≈ 18.1 µM) in the assay on Staphylococcus aureus [14] and 2 µg/mL (≈ 4.53 µM) in the assay on Staphylococcus aureus [15].

In the case of `CN[C@H](CC(C)C)C(=O)N[C@H]1C(=O)N[C@@H](CC(N)=O)C(=O)N[C@H]2C(=O)N[C@H]3C(=O)N[C@H](C(=O)N[C@H](C(=O)O)c4cc(O)cc(O)c4-c4cc3ccc4O)[C@H](O)c3ccc(c(Cl)c3)Oc3cc2cc(c3O[C@@H]2O[C@H](CO)[C@@H](O)[C@H](O)[C@H]2O[C@H]2C[C@](C)(N)[C@H](O)[C@H](C)O2)Oc2ccc(cc2Cl)[C@H]1O` [VANCOMYCIN], the MIC is 2 µg/mL (≈ 1.38 µM) against Enterococcus faecalis [1], > 128 µg/mL in the assay with Enterococcus faecium [6] and > 128 µg/mL with Enterococcus faecium [10].
